We go through ten molecules from patent US20140005163A1 (NOVARTIS AG, priority 2010, published 2014).

The target of one series is T1, PI3K delta (Homo sapiens, UniProt O00329).
T1 construct: for the full-length p110-d subunit are generated and fused by overlapping PCR; p85(iSH2) fusion partner (see partner chain) (N); His tag (C); made in house; host or cells: baculovirus; Tn5 (Trichoplusia ni) or TiniPro insect cells
Nature of the series: PI3K delta kinase assay (Kinase-Glo luminescence). Type of series: biochemical. In a few lines:
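Inhibition is derived from luminescent detection of unconsumed ATP. The reaction runs for one hour at ambient temperature and contains the δ isoform fusion protein, phosphatidylinositol substrate and low (1 μM) ATP. Eight compound concentrations are tested in single, and a 4-parameter logistic model is used to calculate IC50.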
In general terms: Kinase-Glo reads ATP consumption through a luciferase reaction.

Another series concerns the target T2, mTOR (Homo sapiens, UniProt P42345).
T2 construct: purchased Invitrogen Corporation (Carlsbad/CA, USA) PV4753
Nature of the series: Biochemical assay for m-TOR by TR-FRET. Particulars: 8 μM ATP, 400 nM GFP-4EBP1, 0.5 nM mTOR. In a few lines:
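Steps: ATP (8 μM final) plus GFP-4EBP1 (400 nM final) combined with mTOR (0.5 nM final), incubated at rt; buffer HEPES pH 7.5 with 10 mM MnCl2, NaCl, EGTA, DTT. Then stopped with EDTA/Tb3+-anti-p4EBP1 pT46 Ab (0.5 nM). Plates read after 15 min.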
(In general: TR-FRET usually uses a lanthanide donor and a delayed reading to cut background.)

The nature of another series: Solubility at pH 6.8. Type of series: physicochemical. Particulars: pH 6.8, aqueous buffer, thermodynamic from solid; read-out: solubility. In a few lines: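 Solubility was measured at pH 6.8 following the cited Zhou et al. (2007) procedure.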
The test system of series [1] is S6 Ribosomal Protein phosphorylation Ser235/236 in TSC1 null mouse embryo fibroblast (MEF) cells. Nature of the series: Reverse protein array assay, S6 Ribosomal Protein phosphorylation Ser235/236 in TSC1 null MEF cells. It is filed as cell-based. Particulars: 1 h, pS6 ribosomal protein Ser235/236, 60 minutes incubation, read-out: p-S6 IC50. In a few lines: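 TSC1−/− MEFs, seeded and held ≥20 h at 37 °C/5% CO2, were exposed to 8-step serial compound dilutions (0.02% DMSO final; DMSO vehicle control) for 60 min at 37 °C. Cells were then lysed on ice for 10 min and lysates spotted onto reverse protein array chips.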

Values after ≈ are worked out from the molar mass of the structure shown.

T2 sequence (P42345 1360-2549 limits assumed): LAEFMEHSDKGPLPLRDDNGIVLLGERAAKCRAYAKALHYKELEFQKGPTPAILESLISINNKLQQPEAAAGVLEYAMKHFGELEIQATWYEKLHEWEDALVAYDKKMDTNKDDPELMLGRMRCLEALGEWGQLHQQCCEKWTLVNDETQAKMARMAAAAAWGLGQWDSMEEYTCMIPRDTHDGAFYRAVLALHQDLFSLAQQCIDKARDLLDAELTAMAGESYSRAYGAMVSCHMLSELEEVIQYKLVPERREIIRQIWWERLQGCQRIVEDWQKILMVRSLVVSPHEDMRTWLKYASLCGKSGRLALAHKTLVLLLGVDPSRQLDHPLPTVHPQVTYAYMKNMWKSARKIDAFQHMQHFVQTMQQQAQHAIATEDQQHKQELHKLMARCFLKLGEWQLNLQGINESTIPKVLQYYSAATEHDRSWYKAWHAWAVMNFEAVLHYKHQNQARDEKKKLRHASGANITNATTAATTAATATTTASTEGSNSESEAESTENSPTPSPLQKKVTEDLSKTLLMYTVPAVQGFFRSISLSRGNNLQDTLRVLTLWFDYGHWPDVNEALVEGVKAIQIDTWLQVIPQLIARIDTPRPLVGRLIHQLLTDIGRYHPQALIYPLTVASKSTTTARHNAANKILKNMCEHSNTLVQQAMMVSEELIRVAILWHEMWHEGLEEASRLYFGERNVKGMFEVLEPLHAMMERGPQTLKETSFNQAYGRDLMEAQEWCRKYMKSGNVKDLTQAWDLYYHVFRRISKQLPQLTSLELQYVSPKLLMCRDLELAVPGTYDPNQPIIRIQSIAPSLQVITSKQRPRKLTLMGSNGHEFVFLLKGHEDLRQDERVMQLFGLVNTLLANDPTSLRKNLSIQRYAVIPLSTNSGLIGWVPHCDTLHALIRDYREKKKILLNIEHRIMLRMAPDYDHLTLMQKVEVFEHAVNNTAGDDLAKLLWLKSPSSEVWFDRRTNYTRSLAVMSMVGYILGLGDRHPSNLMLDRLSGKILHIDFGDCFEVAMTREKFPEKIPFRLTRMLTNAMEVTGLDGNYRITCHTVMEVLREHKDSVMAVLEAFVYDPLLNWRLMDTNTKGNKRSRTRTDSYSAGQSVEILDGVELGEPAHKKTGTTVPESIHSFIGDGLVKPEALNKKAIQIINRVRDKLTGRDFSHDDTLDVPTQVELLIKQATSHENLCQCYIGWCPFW
T1 sequence (O00329 with tags, fused parts or gaps limits assumed): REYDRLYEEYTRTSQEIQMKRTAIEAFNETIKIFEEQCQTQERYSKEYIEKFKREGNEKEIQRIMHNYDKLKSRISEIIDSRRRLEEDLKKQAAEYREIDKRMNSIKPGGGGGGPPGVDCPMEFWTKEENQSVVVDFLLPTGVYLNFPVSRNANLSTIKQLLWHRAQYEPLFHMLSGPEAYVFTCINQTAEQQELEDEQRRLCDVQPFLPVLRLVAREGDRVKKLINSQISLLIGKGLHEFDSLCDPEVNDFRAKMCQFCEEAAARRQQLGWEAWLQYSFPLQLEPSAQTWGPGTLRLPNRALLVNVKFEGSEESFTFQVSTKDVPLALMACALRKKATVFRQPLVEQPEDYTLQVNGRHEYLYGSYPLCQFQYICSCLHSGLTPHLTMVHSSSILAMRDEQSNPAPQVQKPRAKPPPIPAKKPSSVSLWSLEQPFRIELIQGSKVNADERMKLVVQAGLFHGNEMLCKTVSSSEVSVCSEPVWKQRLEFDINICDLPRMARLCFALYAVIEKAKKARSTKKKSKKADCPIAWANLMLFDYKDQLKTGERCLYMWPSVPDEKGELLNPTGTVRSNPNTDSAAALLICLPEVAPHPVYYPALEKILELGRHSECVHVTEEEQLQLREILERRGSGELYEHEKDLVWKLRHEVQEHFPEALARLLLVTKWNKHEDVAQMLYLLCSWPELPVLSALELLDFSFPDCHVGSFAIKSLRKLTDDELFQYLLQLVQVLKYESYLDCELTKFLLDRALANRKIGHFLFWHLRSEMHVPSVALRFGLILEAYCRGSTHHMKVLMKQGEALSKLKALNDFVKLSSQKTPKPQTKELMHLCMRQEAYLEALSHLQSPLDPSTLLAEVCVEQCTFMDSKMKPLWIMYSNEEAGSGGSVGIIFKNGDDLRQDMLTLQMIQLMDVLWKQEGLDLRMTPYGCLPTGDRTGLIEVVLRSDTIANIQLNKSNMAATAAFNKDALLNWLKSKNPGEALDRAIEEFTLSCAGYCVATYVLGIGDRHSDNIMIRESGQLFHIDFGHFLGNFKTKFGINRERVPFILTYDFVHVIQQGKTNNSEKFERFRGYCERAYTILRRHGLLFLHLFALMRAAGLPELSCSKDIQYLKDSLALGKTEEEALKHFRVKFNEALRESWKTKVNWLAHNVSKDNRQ

A word on the IC50: it is the concentration that inhibits the measured activity by half. The solubility is the dissolved amount per volume that the medium holds. Turning to `Cc1nn(C)cc1-n1c(=O)n(C)c2cnc3ccc(-c4cccc(N(C)S(C)(=O)=O)c4)cc3c21` [Example 117, N-{3-[1-(1,3-Dimethyl-1H-pyrazol-4-yl)-3-methyl-2-oxo-2,3-dihydro-1H-imidazo[4,5-c]quinolin-8-yl]-phenyl}-N-methyl-methanesulfonamide], the IC50 was found to be 147 nM on PI3K delta, 470 nM at mTOR and 154 nM in series [1]. In addition, in “Solubility at pH 6.8”, the solubility amounted to 3 µg/mL (≈ 6.3 µM).
Take `CCOC(C)(C)c1cncc(-c2ccc3ncc4c(c3c2)n(-c2cn(C)nc2C)c(=O)n4C)c1` [Example 240, 1-(1,3-Dimethyl-1H-pyrazol-4-yl)-8-[5-(1-ethoxy-1-methyl-ethyl)-pyridin-3-yl]-3-methyl-1,3-dihydro-imidazo[4,5-c]quinolin-2-one]: the IC50 is less than 3 nM at PI3K delta, 79 nM on mTOR and 11 nM in series [1]. Besides, in the series “Solubility at pH 6.8”, the solubility was determined as 4 µg/mL (≈ 8.76 µM).
With `COc1ccc(-c2ccc3ncc4c(c3c2)n(-c2cn(CC(=O)N(C)C)nc2C)c(=O)n4C)cn1` [Example 102, 2-{4-[8-(6-Methoxy-pyridin-3-yl)-3-methyl-2-oxo-2,3-dihydro-imidazo[4,5-c]quinolin-1-yl]-3-methyl-pyrazol-1-yl}-N,N-dimethyl-acetamide], the IC50 is 26 nM on PI3K delta, 11 nM on mTOR and less than 5 nM in series [1]. Further, the solubility in “Solubility at pH 6.8” is 7 µg/mL (≈ 14.8 µM).
In the case of `Cc1nn(C)cc1-n1c(=O)n(C)c2cnc3ccc(-c4cncnc4)cc3c21` [Example 26, 1-(1,3-Dimethyl-1H-pyrazol-4-yl)-3-methyl-8-pyrimidin-5-yl-1,3-dihydro-imidazo[4,5-c]quinolin-2-one], the IC50 on PI3K delta is 336 nM; on mTOR, 112 nM; in series [1] it was 5 nM. Also, the solubility in “Solubility at pH 6.8” came to 242 µg/mL (≈ 652 µM).
On to `Cc1nn(C)cc1-n1c(=O)n(C)c2cnc3ccc(-c4cnc(Cl)c(N)c4)cc3c21` [Example 152.2, 8-(5-Amino-6-chloro-pyridin-3-yl)-1-(1,3-dimethyl-1H-pyrazol-4-yl)-3-methyl-1,3-dihydro-imidazo[4,5-c]quinolin-2-one], for which the values for the IC50 (at PI3K delta; on mTOR; in series [1]) were 28 nM, 5 nM and 1 nM, respectively. Besides, in the series “Solubility at pH 6.8”, the solubility is 4 µg/mL (≈ 9.53 µM).
With `CCOCc1ncc(-c2ccc3ncc4c(c3c2)n(-c2cn(C)nc2Cl)c(=O)n4C)cc1OC` [Example 196.1, 1-(3-Chloro-1-methyl-1H-pyrazol-4-yl)-8-(6-ethoxymethyl-5-methoxy-pyridin-3-yl)-3-methyl-1,3-dihydro-imidazo[4,5-c]quinolin-2-one], the IC50 on PI3K delta is 5 nM; on mTOR, 45 nM; in series [1], 10 nM. Moreover, in “Solubility at pH 6.8”, the solubility is 44 µg/mL (≈ 91.9 µM).
In the case of `CCN(CC)C(=O)Cn1cc(-n2c(=O)n(C)c3cnc4ccc(-c5cnc(N6CCCC6)nc5)cc4c32)c(C)n1` [Example 247.1, N,N-Diethyl-2-{3-methyl-4-[3-methyl-2-oxo-8-(2-pyrrolidin-1-yl-pyrimidin-5-yl)-2,3-dihydro-imidazo[4,5-c]quinolin-1-yl]-pyrazol-1-yl}-acetamide], the IC50 at PI3K delta worked out at 777 nM; at mTOR, 13 nM; in series [1] it was 3 nM. Besides, the solubility in “Solubility at pH 6.8” stood at 69 µg/mL (≈ 128 µM).
For the molecule `Cc1nn(C)cc1-n1c(=O)n(C)c2cnc3ccc(-c4cncc(NC(C)C)c4)cc3c21` [Example 177.1, 1-(1,3-Dimethyl-1H-pyrazol-4-yl)-8-(5-isopropylamino-pyridin-3-yl)-3-methyl-1,3-dihydro-imidazo[4,5-c]quinolin-2-one], the IC50 on PI3K delta stood at 12 nM; at mTOR it was 3 nM; in series [1] it was 2 nM. Besides, in “Solubility at pH 6.8”, the solubility was 169 µg/mL (≈ 395 µM).
`COc1cc(-c2ccc3ncc4c(c3c2)n(-c2cn(C(C)C)nc2C)c(=O)n4C)cnc1CO` [Example 194.1, 8-(6-Hydroxymethyl-5-methoxy-pyridin-3-yl)-1-(1-isopropyl-3-methyl-1H-pyrazol-4-yl)-3-methyl-1,3-dihydro-imidazo[4,5-c]quinolin-2-one]: the half-inhibitory concentration (IC50) on PI3K delta is 15 nM; on mTOR, 101 nM; in series [1], 20 nM. The solubility in the series “Solubility at pH 6.8” turned out to be 129 µg/mL (≈ 281 µM).
For `CCNc1cc(-c2ccc3ncc4c(c3c2)n(-c2cn(C)nc2C)c(=O)n4C)cnc1COC` [Example 156, 1-(1,3-Dimethyl-1H-pyrazol-4-yl)-8-(5-ethylamino-6-methoxymethyl-pyridin-3-yl)-3-methyl-1,3-dihydro-imidazo[4,5-c]quinolin-2-one], in that order: 17 nM, 5 nM, 1 nM and more than 458 µg/mL.
